Counter-ions that a name gives are not always drawn. Like-named read-outs stand apart in the source and are kept apart here.
Tests used:
[1] = test system: apomorphine induced stereotypy; assay: Inhibition of apomorphine induced stereotypy assay (extrapyramidal side effect potential); assay type: in vivo, male Wistar rats
Experimental: Potential for undersible extrapyramidal side effect activity is determined in the inhibition of apormorphine stereotypy assay by methods similar to those described by N. E. Anden, et al., J. Pharma.
Drugs are prepared using distilled water and, if insoluble, a suitable surfactant is added. The route of administration may be varied and the dosage volume is 10 ml/kg. For a primary screen, a group size of six is used. Drug is administered one hour prior to scoring and the animals are placed in individual clear plastic cages (24×14×13 cm). The control group receives vehicle. Apomorphine hydrochloride solution is prepared at a concentration of 15 mg/10 ml in a 0.03% ascorbic acid stock solution (30 mg of ascorbic acid in 100 ml of 1% saline) to increase the stability of the apomorphine hydrochloride while in solution. […] Fifty minutes after drug dosing, stereotypic behavior is noted. Stereotypic activity is defined as sniffing, licking or chewing behavior that occurs in a repetitive manner and is rated as follows: Constant sniffing, licking or chewing without interruption; the animal is considered protected if this behavior is interrupted.
The percent effectiveness of a drug is determined by the number of animals protected in each group.
A dose-response is run in the same manner as a primary screen except that a group size of 10 is used and the animals are dosed in a randomized manner. One group receives vehicle. ED50 for stereotypy are calculated by means of probit analysis.

[2] = test system: apomorphine-induced climbing; assay: Inhibition of apomorphine-induced climbing, climbing mice assay (antipsychotic activity); assay type: in vivo, CK-1 male mice; settings: for ED50: Mus musculus, ip, read-out: Antipsychotic Activity ED50
Experimental: The subject CK-1 male mice (23-27 grams) are group-housed under standard laboratory conditions. The mice are individually placed in wire mesh stick cages (4"×4"10") and are allowed one hour for adaptation and exploration of the new environment.
For evaluation of climbing, 3 readings are taken at 10, 20 and 30 minutes after apomorphine administration according to the following scale: […]
Mice consistently climbing before the injection of apormorphine are discarded.
With full-developed apomorphine climbing, the animals are hanging onto the cage walls, rather motionless, over longer periods of time. By contrast, climbs due to mere motor stimulation usually only last a few seconds.
The climbing scores are individually totaled (maximal score; 6 per mouse over 3 readings) and the total score of the control group (vehicle intraperitioneally-apomorphine subcutaneously) is set to 100%.

[3] = Rattus norvegicus, read-out: % Inhibition of apomorphine induced stereotypy
[4] = mice, compound intraperitoneally 30 min before apomorphine 1.5 mg/kg s.c.

O=C(CCCN1CCC(O)(c2ccc(Cl)cc2)CC1)c1ccc(F)cc1 [Haloperidol, reference compound]
inhibition at 0.2 mg/kg [1, 3]: 50% | ED50 [2]: 0.11 mg/kg

CN(CCCCN1CCN(c2nsc3ccccc23)CC1)C(=O)c1nsc2ccccc12 [N-Methyl-N-[4-(1-(1,2-benzisothiazol-3-yl)-4-piperazinyl)butyl]-1,2-benzisothiazole-3-carboxamide hydrochloride]
inhibition at 40 mg/kg [1, 3]: 100%

COc1ccccc1N1CCN(CCCCN(C)C(=O)c2nsc3ccccc23)CC1 [N-Methyl-N-[4-(1-(2-methoxyphenyl)-4-piperazinyl)butyl]-1,2-benzisothiazole-3-carboxamide dihydrochloride hemihydrate]
inhibition at 39.2 mg/kg ([1]; Rattus norvegicus, rats, dose 39.2 mg/kg body wt.): 50% | Antipsychotic Activity ED50 ([2]; mice, compound intraperitoneally 30 min before apomorphine 1.5 mg/kg s.c., dihydrochloride hemihydrate): 4.2 mg/kg | Antipsychotic Activity ED50 ([2]; mice, compound intraperitoneally 30 min before apomorphine 1.5 mg/kg s.c., listed as N-methyl-N-[4-(1-(2-methoxyphenyl)-4-piperazinyl)butyl-1,2-benzisothiazole-3-car, dihydrochloride hemihydrate): 9.6 mg/kg

CN(CCCCN1CCN(c2csc3cc(F)ccc23)CC1)C(=O)c1nsc2ccccc12.Cl [N-Methyl-N-[4-(1-(6-fluorobenzo[b]thiophen-3-yl)-4-piperazinyl)butyl]-1,2-benzisothiazol-3-carboxamide hydrochloride]
inhibition at 40 mg/kg [1, 3]: 100% | ED50 [2]: 4.5 mg/kg

CN(CCCCN1CCN(c2csc3cc(F)ccc23)CC1)C(=O)c1noc2ccccc12.Cl [N-Methyl-N-[4-(1-(6-fluorobenzo[b]thiophen-3-yl)-4-piperazinyl)butyl]-1,2-benzisoxazole-3-carboxamide hydrochloride]
inhibition at 52 mg/kg [1, 3]: 50% | ED50 [2]: 5 mg/kg

COc1ccccc1N1CCN(CCNC(=O)c2nsc3ccccc23)CC1.Cl.Cl [N-[2-(1-(2-Methoxyphenyl)-4-piperazinyl)ethyl]-1,2-benzisothiazole-3-carboxamide dihydrochloride]
inhibition at 51.8 mg/kg [1, 3]: 50% | ED50 [2]: 6.3 mg/kg

Cl.O=C(NCCN1CCN(c2csc3cc(F)ccc23)CC1)c1noc2ccccc12 [N-[2-(1-(6-fluorobenzo[b]thiophen-3-yl)-4-piperazinyl)ethyl]-1,2-benzisoxazole-3-carboxamide hydrochloride]
inhibition at 80 mg/kg [1, 3]: 0% | ED50 [2]: 4.9 mg/kg

Cl.O=C(NCCCCN1CCN(c2nsc3ccccc23)CC1)c1nsc2ccccc12 [N-[4-(1-(1,2-Benzisothiazol-3-yl)-4-piperazinyl)butyl]-1,2-benzisothiazole-3-carboxamide hydrochloride]
inhibition at 40 mg/kg [1, 3]: 17% | ED50 [2]: 8.3 mg/kg

CCN1CCCC1CNC(=O)c1cc(S(N)(=O)=O)ccc1OC (centres unmarked) [Sulpiride, reference compound]
ED50 [2, 4]: 4.5 mg/kg

CSc1ccc2c(c1)N(CCC1CCCCN1C)c1ccccc1S2 (centres unmarked) [thioridazine, reference compound]
inhibition at 16 mg/kg ([1]; Rattus norvegicus, rats, dose 16 mg/kg body wt.): 50%

N-[2-(1-(4-Fluorobenzoyl)-4-piperidinyl)ethyl]-1,2-benzisothiazole-3-carboxamide hydrochloride hemihydrate
% Inhibition of apomorphine induced stereotypy ([1]; rats, dose 20 mg/kg body wt.): 67% | Antipsychotic Activity ED50 [2, 4]: 3.6 mg/kg

— patent US5143923A, “Benzoisothiazole- and benziosoxazole-3-carboxamides” (Hoechst-Roussel Pharmaceuticals Inc., priority 1991, dated 1992)
